# In the supplement of paper PMC10307832:
# Key:
# Assay in all cases: relative viability (nuclei count vs DMSO), 5 days (fraction); higher = more cells survive
# BGJ398 + Bortezomib = compound: CCN1CCN(c2ccc(Nc3cc(N(C)C(=O)Nc4c(Cl)c(OC)cc(OC)c4Cl)ncn3)cc2)CC1 [BGJ398] + CC(C)C[C@H](NC(=O)[C@H](Cc1ccccc1)NC(=O)c1cnccn1)B(O)O [Bortezomib] (partner 0.002 µM)
# Outline: (§1)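 Cells from lung cancer lines were seeded into 1536-well plates and, one day later, dosed by pin tool. Treatments were either a single drug or a fixed dose of an anchor drug with five library-drug doses (not always all listed) in √10 steps. After 5 days, nuclei were stained in a one-step fixation (final 0.05% Triton X-100, 1% formaldehyde, 1 ug/ml Hoechst) and counted on 4× images, and relative viability is the treated-to-vehicle nuclei ratio, as the median of duplicate plates.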
# [1] = compound: C1=CC2=NC=CN=C2C=C1/C=C/3\C(=O)NC(=O)S3 + C[C@@H](Oc1cc(-c2cnn(C3CCNCC3)c2)cnc1N)c1c(Cl)ccc(F)c1Cl [Crizotinib] (partner 1 µM)
# Outline: as §1
# BGJ398 + AZD7762 = compound: CCN1CCN(c2ccc(Nc3cc(N(C)C(=O)Nc4c(Cl)c(OC)cc(OC)c4Cl)ncn3)cc2)CC1 [BGJ398] + NC(=O)Nc1cc(-c2cccc(F)c2)sc1C(=O)N[C@H]1CCCNC1 [AZD7762] (partner 0.2 µM)
# Outline: as §1
# [2] = compound: C1=CC2=NC=CN=C2C=C1/C=C/3\C(=O)NC(=O)S3 + CC(C)C[C@H](NC(=O)[C@H](Cc1ccccc1)NC(=O)c1cnccn1)B(O)O [Bortezomib] (partner 0.002 µM)
# Outline: as §1
Cell Line,relative viability (BGJ398 + Bortezomib; first compound 0.01 µM),relative viability (BGJ398 + Bortezomib; first compound 0.03162 µM),relative viability (BGJ398 + Bortezomib; first compound 0.1 µM),relative viability (BGJ398 + Bortezomib; first compound 0.3162 µM),relative viability (BGJ398 + Bortezomib; first compound 1 µM),relative viability ([1]; first compound 0.02 µM),relative viability ([1]; first compound 0.06325 µM),relative viability ([1]; first compound 0.2 µM),relative viability ([1]; first compound 0.6325 µM),relative viability ([1]; first compound 2 µM),relative viability (BGJ398 + AZD7762; first compound 0.01 µM),relative viability (BGJ398 + AZD7762; first compound 0.03162 µM),relative viability (BGJ398 + AZD7762; first compound 0.1 µM),relative viability (BGJ398 + AZD7762; first compound 0.3162 µM),relative viability (BGJ398 + AZD7762; first compound 1 µM),relative viability ([2]; first compound 0.02 µM),relative viability ([2]; first compound 0.06325 µM),relative viability ([2]; first compound 0.2 µM),relative viability ([2]; first compound 0.6325 µM),relative viability ([2]; first compound 2 µM)
NCI-H23,0.946,1.05,1.19,1.2,1,0.49,0.629,0.498,0.555,0.351,0.228,0.267,0.252,0.232,0.225,0.954,1.37,1.27,0.843,0.678
LCLC-97TM1,0.685,0.492,0.789,0.529,0.329,0.391,0.344,0.375,0.354,0.218,0.251,0.217,0.225,0.208,0.249,0.624,0.515,0.573,0.776,0.125
EPLC-272H,0.96,0.816,0.957,0.841,0.861,1.12,1.09,1.12,0.782,1.13,0.209,0.21,0.252,0.174,0.306,0.8,1.05,0.898,0.857,0.808
NCI-H1915,0.952,0.972,0.969,0.977,0.864,0.861,0.934,0.918,0.859,0.894,0.696,0.665,0.691,0.576,0.724,0.985,1.05,1.05,0.99,1
NCI-H2405,0.976,0.99,1,0.98,0.785,0.865,0.847,0.826,0.869,0.798,0.84,0.857,0.781,0.757,0.656,0.96,1.06,0.991,1,0.782
NCI-H322M,1.14,0.989,1.21,1.21,1.24,0.858,0.778,1.1,0.823,0.943,0.689,0.46,0.577,0.607,0.601,1.18,1.1,1.26,1.19,0.973
NCI-H838,0.636,0.921,0.655,0.776,0.5,0.778,1.12,0.737,0.751,0.823,0.861,0.915,1.04,0.782,0.756,0.711,0.908,0.878,0.595,0.684
CAL-12T,0.954,0.852,0.996,0.943,0.837,0.572,0.802,0.901,0.661,0.683,0.656,0.664,0.698,0.636,0.625,1.05,1.06,0.921,0.97,0.966
